Results published in patent publication US11319324B2, “Pyrazolo-pyrrolo-pyrimidine-dione derivatives as P2X3 inhibitors” (Bayer Aktiengesellschaft, priority 2017, dated 2022).
Structures can show the parent of a compound that is named as a salt.

Assays:
human P2X2/3 receptors = molecular target: T1, human P2X2/3 receptors (Homo sapiens, UniProt P56373+Q9UBL9); experiment: Intracellular calcium measurement, antagonist activity at human P2X2/3 receptors (hP2X23 1321N1), Fluo8; assay type: cell-based; conditions: column 4); 1321N1 cells, human P2X2/3, Fluo8, agonist ATP at EC50; read-out: 4) hP2X2/3 IC50 [nM] (1321N1)
T1 construct: expressed in transfected cells; host or cells: human astrocytoma 1321N1 (1312N1 [sic])
T1 sequence (P56373 1-397): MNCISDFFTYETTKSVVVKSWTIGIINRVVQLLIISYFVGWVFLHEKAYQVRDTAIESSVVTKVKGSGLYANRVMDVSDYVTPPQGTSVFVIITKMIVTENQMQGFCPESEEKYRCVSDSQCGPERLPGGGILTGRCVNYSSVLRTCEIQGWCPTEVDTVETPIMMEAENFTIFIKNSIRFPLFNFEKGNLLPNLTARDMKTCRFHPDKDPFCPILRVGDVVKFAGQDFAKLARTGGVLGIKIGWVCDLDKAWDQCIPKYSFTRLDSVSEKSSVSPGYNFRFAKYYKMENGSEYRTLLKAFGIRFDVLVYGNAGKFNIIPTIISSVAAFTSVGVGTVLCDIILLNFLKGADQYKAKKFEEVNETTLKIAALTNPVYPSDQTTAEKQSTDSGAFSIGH
T1 sequence (Q9UBL9 1-471): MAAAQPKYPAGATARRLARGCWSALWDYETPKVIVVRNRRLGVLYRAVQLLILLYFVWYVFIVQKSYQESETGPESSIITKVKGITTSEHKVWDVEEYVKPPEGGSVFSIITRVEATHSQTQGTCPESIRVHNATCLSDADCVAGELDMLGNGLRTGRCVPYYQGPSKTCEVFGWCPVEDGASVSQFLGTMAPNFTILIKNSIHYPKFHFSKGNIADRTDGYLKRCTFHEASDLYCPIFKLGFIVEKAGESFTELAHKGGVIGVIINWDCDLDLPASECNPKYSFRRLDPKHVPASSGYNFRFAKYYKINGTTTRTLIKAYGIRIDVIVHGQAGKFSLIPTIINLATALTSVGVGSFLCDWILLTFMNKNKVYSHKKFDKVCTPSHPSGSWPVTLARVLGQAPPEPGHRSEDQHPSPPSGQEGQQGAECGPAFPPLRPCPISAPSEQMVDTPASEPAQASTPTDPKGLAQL
Method: 3) And 4) Intracellular Calcium Measurement to Compare Antagonist Activity at Human P2X3 Receptors (hP2X3 1321N1) and at Human P2X2/3 Receptors (hP2X23 1321N1)
The comparison of antagonistic activity at the P2X3 versus the P2X2/3 receptor of the compounds of the invention were performed by use of recombinant cell lines. These cell lines derived originally from the human astrocytoma cell line […] (Macintyre E H, Pontén J, Vatter A E. Acta Pathol Microbiol Scand A. 1972; 80(2):267-83). The cell lines are stably transfected with the human P2X3 receptor forming homotrimeric P2X3 receptors or are co-transfected with P2X2 and P2X3 forming heterotrimeric P2X2/3 receptors. Stimulation of the receptors with the agonist ATP leads to a conformational change of the receptors and influx of extracellular calcium ions through the open ion channel. The cytoplasmatic calcium transient is detected via the calcium sensitive dye Fluo8. The strength of Fluo8 fluorescence signal corresponds to the level of receptor activation. An inhibitor would decrease the signal depending on its potency and concentration. Fluorescence was measured by use of a suitable fluorescence reader.
On the day before the assay, the cells were plated in culture medium (DMEM high glucose, 10% FCS, 1% MEM non-essential amino acids, 4 mM Glutamax) in 384-well poly-D-lysine coated microtiter plates and kept in a cell incubator (96% humidity, 5% v/v CO2, 37° C.). On the day of the assay medium was exchanged by Fluo8 containing buffer and incubated for 60 minutes. Test compounds were added at various concentrations and plates were incubated for 10 minutes. In the fluorescence reader a 3 seconds baseline measurement was performed and the agonist ATP was applied at EC50 concentration of the respective receptor during constant fluorescence measurement for 120 seconds.

human P2X3 receptor = molecular target: T2, human P2X3 receptor (Homo sapiens, UniProt P56373); experiment: Intracellular calcium measurement to assess antagonist activity at human P2X3 receptors (hP2X3 CHO), photina luminescence; assay type: cell-based; set-up: expressed in transfected cells; host or cells: Chinese hamster ovary (CHO) cells; conditions: column 2), CHO cells, agonist α,β-methylene-ATP at EC50
T2 sequence (P56373 1-397): T1 sequence (P56373 1-397)
Method: 2) Intracellular Calcium Measurement to Assess Antagonist Activity at Human P2X3 Receptors (hP2X3 CHO)
The determination of antagonistic activity at the P2X3 receptor of the compounds of the invention was performed by use of a recombinant cell line. This cell line derives originally from the Chinese hamster ovary (CHO) cell line (Tjio J. H.; Puck T. T., 1958, J. Exp. Med. 108: 259-271). The cell line is stably transfected with the human P2X3 receptor and a calcium-sensitive photoprotein, mitochondrial photina, which, after reconstitution with the cofactor coelenterazine, emits light in dependence of calcium binding [Bovolenta S, Foti M, Lohmer S, Corazza S., J Biomol Screen. 2007 August; 12(5):694-704]. The strength of the photina luminescence signal corresponds to the level of receptor activation upon agonist binding. An inhibitor would decrease the signal depending on its potency and concentration. Bioluminescence was detected using a suitable luminometer [Milligan G, Marshall F, Rees S, Trends in Pharmacological Sciences 17,235-237 (1996)].
On the day before the assay, the cells were plated out in culture medium (DMEM/F12 (PAN, P04-41451), 10% FCS) in 384-well microtiter plates and kept in a cell incubator (96% humidity, 5% v/v CO2, […]). On the day of the assay medium was replaced by 2 mM Ca-tyrode buffer containing 5 μg/ml coelenterazine. Plates were incubated for 3 hours at 37° C. (96% humidity, 5% v/v CO2). […] The resulting light signal was measured immediately in the luminometer.

IC50 (human P2X2/3 receptors) [nM] | IC50 (human P2X3 receptor) [nM] | SMILES
6150 | 27 | CCc1cc2n(CC(=O)Nc3ccc(F)cn3)c3c(c(=O)n2n1)CN(Cc1ccc(C)nc1)C3=O [Example 117]
1350 | 15 | O=C(Cn1c2c(c(=O)n3nc(C(=O)Nc4ccccc4F)cc13)CN(Cc1ccccn1)C2=O)Nc1ccc(F)cn1 [Example 222]
2680 | 17 | CC(C)N1Cc2c(n(CC(=O)Nc3ccc(F)cn3)c3cc(C(=O)Nc4cccnc4)nn3c2=O)C1=O [Example 207]
> 23500 | 95 | CC(C)N1Cc2c(n(CC(=O)Nc3ccc(F)cn3)c3cc(C4CCC(=O)N4C)nn3c2=O)C1=O (racemic) [Example 231, N-(5-fluoropyridin-2-yl)-2-{2-[(±)-1-methyl-5-oxopyrrolidin-2-yl]-5,8-dioxo-6-(propan-2-yl)-5,6,7,8-tetrahydro-4H-pyrazolo[1,5-a]pyrrolo[3,4-d]pyrimidin-4-yl}acetamide]
11500 | 15 | COC[C@H](C)N1Cc2c(n(CC(=O)Nc3ccc(F)cn3)c3cc(C(=O)N(C)Cc4cccnc4)nn3c2=O)C1=O [Example 218]
3870 | 37 | CC(C)N1Cc2c(n(CC(=O)Nc3ccc(F)cn3)c3cc(C(=O)Nc4ccccn4)nn3c2=O)C1=O [Example 201]
1350 | 24 | Cc1ccc(-c2cc3n(CC(=O)Nc4ccc(F)cn4)c4c(c(=O)n3n2)CN([C@H]2CCOC2)C4=O)nc1 [Example 161, N-(5-fluoropyridin-2-yl)-2-{2-(5-methylpyridin-2-yl)-5,8-dioxo-6-[(3S)-oxolan-3-yl]-5,6,7,8-tetrahydro-4H-pyrazolo[1,5-a]pyrrolo[3,4-d]pyrimidin-4-yl}acetamide]
1160 | 51 | CCc1cc2n(CC(=O)Nc3ccc(F)cn3)c3c(c(=O)n2n1)CN(C(C)COCc1ccccc1)C3=O (racemic) [Example 121, 2-{6-[(±)-1-(benzyloxy)propan-2-yl]-2-ethyl-5,8-dioxo-5,6,7,8-tetrahydro-4H-pyrazolo[1,5-a]pyrrolo[3,4-d]pyrimidin-4-yl}-N-(5-fluoropyridin-2-yl)acetamide]
5000 | 17 | CC(C)N1Cc2c(n(CC(=O)Nc3ccc(F)cn3)c3cc(C(=O)Nc4c(F)cccc4F)nn3c2=O)C1=O [Example 205]
3700 | 20 | COC[C@H](C)N1Cc2c(n(CC(=O)Nc3ccc(F)cn3)c3cc(-c4ncccc4C)nn3c2=O)C1=O [Example 164]
– | 5 | Cc1cnc(-c2cc3n(CC(=O)Nc4ccc(F)cn4)c4c(c(=O)n3n2)CN(C(C)C)C4=O)c(C)c1 [Example 166, 2-[2-(3,5-dimethylpyridin-2-yl)-5,8-dioxo-6-(propan-2-yl)-5,6,7,8-tetrahydro-4H-pyrazolo[1,5-a]pyrrolo[3,4-d]pyrimidin-4-yl]-N-(5-fluoropyridin-2-yl)acetamide]
– | 42 | CC(C)N1Cc2c(n(CC(=O)Nc3ccc(F)cn3)c3cc([C@H]4CCOC4)nn3c2=O)C1=O (single isomer, unassigned) [Example 281, 2-{5,8-dioxo-2-[oxolan-3-yl]-6-(propan-2-yl)-5,6,7,8-tetrahydro-4H-pyrazolo[1,5-a]pyrrolo[3,4-d]pyrimidin-4-yl}-N-(5-fluoropyridin-2-yl)acetamide]
– | 625 | CC(C)N1Cc2c(n(CC(=O)Nc3ccc(F)cn3)c3cc(N)nn3c2=O)C1=O [Example 241, 2-[2-amino-5,8-dioxo-6-(propan-2-yl)-5,6,7,8-tetrahydro-4H-pyrazolo[1,5-a]pyrrolo[3,4-d]pyrimidin-4-yl]-N-(5-fluoropyridin-2-yl)acetamide hydrochloride (1:1)]
– | 30 | COC[C@H](C)N1Cc2c(n(CC(=O)Nc3ccc(F)cn3)c3cc(C(=O)Nc4ccccc4F)nn3c2=O)C1=O [Example 221]
– | 115 | CC(C)N1Cc2c(n(CC(=O)Nc3ccc(F)cn3)c3cc(C4CN(C(=O)OC(C)(C)C)C4)nn3c2=O)C1=O [Example 230, tert-butyl 3-[4-{2-[(5-fluoropyridin-2-yl)amino]-2-oxoethyl}-5,8-dioxo-6-(propan-2-yl)-5,6,7,8-tetrahydro-4H-pyrazolo[1,5-a]pyrrolo[3,4-d]pyrimidin-2-yl]azetidine-1-carboxylate]
5600 | 20 | COC[C@H](C)N1Cc2c(n(CC(=O)Nc3ccc(F)cn3)c3cc(C(=O)Nc4cccnn4)nn3c2=O)C1=O [Example 216]
– | 131 | CCc1cc2n(CC(=O)Nc3ccc(F)cn3)c3c(c(=O)n2n1)CN(C1CCCOC1)C3=O (centres unmarked) [Example 118]
– | 120 | CNc1cc2n(CC(=O)Nc3ccc(F)cn3)c3c(c(=O)n2n1)CN([C@@H](C)COC)C3=O [Example 179]
– | 14 | O=C(Cn1c2c(c(=O)n3nc(-c4ccncc4)cc13)CN(Cc1cccnc1)C2=O)Nc1ccc(F)cn1 [Example 131]
– | 14 | O=C(Cn1c2c(c(=O)n3nc(-c4ccncc4)cc13)CN(Cc1ccccn1)C2=O)Nc1ccc(F)cn1 [Example 130]
6450 | 22 | COC[C@H](C)N1Cc2c(n(CC(=O)Nc3ccc(F)cn3)c3cc(C(=O)N(C)c4ccccn4)nn3c2=O)C1=O [Example 214]
– | 180 | O=C(Cn1c2c(c(=O)n3nc(C(=O)Nc4ccccc4F)cc13)CN(C1CCOCC1)C2=O)Nc1ccc(F)cn1 [Example 219]
– | 123 | CC(C)N1Cc2c(n(CC(=O)Nc3ccc(F)cn3)c3cc(C(=O)Nc4ncco4)nn3c2=O)C1=O [Example 209]
– | 1500 | CCc1cc2n(CC(=O)Nc3ccc(F)cn3)c3c(c(=O)n2n1)CN(C1CN(C(C)=O)C1)C3=O [Example 269]
– | 225 | N#Cc1cc2n(CC(=O)Nc3ccc(F)cn3)c3c(c(=O)n2n1)CN(CCN1CCOCC1)C3=O [Example 147]
– | 28 | CC(C)N1Cc2c(n(CC(=O)Nc3ccc(F)cn3)c3cc(C(=O)Nc4ccc(F)cc4)nn3c2=O)C1=O [Example 208]
– | 225 | COC[C@H](C)N1Cc2c(n(CC(=O)Nc3ccc(F)cn3)c3cc(C#N)nn3c2=O)C1=O [Example 148]
– | 63 | COC[C@H](C)N1Cc2c(n(CC(=O)Nc3ccc(F)cn3)c3cc(C(=O)Nc4ccon4)nn3c2=O)C1=O [Example 215]
– | 21 | CCOC(=O)c1cc2n(CC(=O)Nc3ccc(F)cn3)c3c(c(=O)n2n1)CN(CCN1CCOCC1)C3=O [Example 123]
